According to ChEMBL document CHEMBL4024706 (Eur J Med Chem, 2017):

Experiments:
[1] = target: Dual specificity protein kinase CLK2 (Homo sapiens) (UniProt P49760); assay: Inhibition of wild-type human partial length CLK2 (D144 to R498 residues) expressed in bacterial expression system assessed as residual activity at 1 uM by Kinomescan method relative to control
[2] = target: cAMP-dependent protein kinase catalytic subunit beta (Homo sapiens) (UniProt P22694); assay: Inhibition of wild-type human full length PKAC-beta (M1 to F351 residues) expressed in bacterial expression system assessed as residual activity at 1 uM by Kinomescan method relative to control
[3] = target: Fibroblast growth factor receptor 1 (Homo sapiens) (UniProt P11362); assay: Inhibition of wild-type human partial length FGFR1 (P357 to V669 residues) expressed in bacterial expression system assessed as residual activity at 1 uM by Kinomescan method relative to control
[4] = target: Tyrosine-protein kinase receptor Tie-1 (Homo sapiens) (UniProt P35590); assay: Inhibition of wild-type human partial length TIE1 (T819 to A1138 residues) expressed in bacterial expression system assessed as residual activity at 1 uM by Kinomescan method relative to control
[5] = target: Wee1-like protein kinase (Homo sapiens) (UniProt P30291); assay: Inhibition of wild-type human partial length WEE1 (M291 to K575 residues) expressed in bacterial expression system assessed as residual activity at 1 uM by Kinomescan method relative to control
[6] = target: Cyclin-dependent kinase-like 3 (Homo sapiens) (UniProt Q8IVW4); assay: Inhibition of wild-type human partial length CDKL3 (M1 to D327 residues) expressed in bacterial expression system assessed as residual activity at 1 uM by Kinomescan method relative to control
[7] = system: OCI-AML-3; assay: Growth inhibition of human OCI-AML3 cells; format: functional; details: Homo sapiens, OCI-AML-3
[8] = target: Serine/threonine-protein kinase VRK2 (Homo sapiens) (UniProt Q86Y07); assay: Inhibition of wild-type human partial length VRK2 (M1 to T336 residues) expressed in mammalian expression system assessed as residual activity at 1 uM by Kinomescan method relative to control
[9] = target: Serine/threonine-protein kinase D3 (Homo sapiens) (UniProt O94806); assay: Inhibition of wild-type human partial length PRKD3 (S543 to E863 residues) expressed in bacterial expression system assessed as residual activity at 1 uM by Kinomescan method relative to control
Sequence of Serine/threonine-protein kinase D3 (Homo sapiens) (O94806 whole entry, the tested form may be a part): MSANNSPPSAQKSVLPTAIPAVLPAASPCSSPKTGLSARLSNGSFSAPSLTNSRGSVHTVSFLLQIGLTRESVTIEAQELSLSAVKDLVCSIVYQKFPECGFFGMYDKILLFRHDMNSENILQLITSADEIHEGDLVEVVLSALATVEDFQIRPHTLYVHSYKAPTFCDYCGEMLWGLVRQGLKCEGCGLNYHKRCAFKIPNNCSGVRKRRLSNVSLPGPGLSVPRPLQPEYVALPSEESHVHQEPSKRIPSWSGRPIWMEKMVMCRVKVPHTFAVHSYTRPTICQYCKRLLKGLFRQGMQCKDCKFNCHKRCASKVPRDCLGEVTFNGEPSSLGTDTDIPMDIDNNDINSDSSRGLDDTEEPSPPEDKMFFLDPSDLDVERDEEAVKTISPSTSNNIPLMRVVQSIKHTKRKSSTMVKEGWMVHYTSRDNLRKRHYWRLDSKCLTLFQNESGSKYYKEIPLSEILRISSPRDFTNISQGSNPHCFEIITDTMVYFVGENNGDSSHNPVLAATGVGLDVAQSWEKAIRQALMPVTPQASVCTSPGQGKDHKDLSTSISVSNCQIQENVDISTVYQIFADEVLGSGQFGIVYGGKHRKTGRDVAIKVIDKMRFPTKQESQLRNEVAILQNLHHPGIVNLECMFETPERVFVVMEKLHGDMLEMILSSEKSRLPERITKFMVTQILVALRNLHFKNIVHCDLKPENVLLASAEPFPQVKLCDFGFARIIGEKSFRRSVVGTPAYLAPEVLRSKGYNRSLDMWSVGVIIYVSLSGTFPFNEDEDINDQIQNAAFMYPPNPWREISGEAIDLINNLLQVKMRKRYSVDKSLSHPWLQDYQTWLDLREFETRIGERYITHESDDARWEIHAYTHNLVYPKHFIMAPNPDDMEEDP

[10] = target: TGF-beta receptor type-1 (Homo sapiens) (UniProt P36897); assay: Inhibition of wild-type human partial length TGFBR1 (D179 to M503 residues) expressed in bacterial expression system assessed as residual activity at 1 uM by Kinomescan method relative to control
Sequence of TGF-beta receptor type-1 (Homo sapiens) (P36897 whole entry, the tested form may be a part): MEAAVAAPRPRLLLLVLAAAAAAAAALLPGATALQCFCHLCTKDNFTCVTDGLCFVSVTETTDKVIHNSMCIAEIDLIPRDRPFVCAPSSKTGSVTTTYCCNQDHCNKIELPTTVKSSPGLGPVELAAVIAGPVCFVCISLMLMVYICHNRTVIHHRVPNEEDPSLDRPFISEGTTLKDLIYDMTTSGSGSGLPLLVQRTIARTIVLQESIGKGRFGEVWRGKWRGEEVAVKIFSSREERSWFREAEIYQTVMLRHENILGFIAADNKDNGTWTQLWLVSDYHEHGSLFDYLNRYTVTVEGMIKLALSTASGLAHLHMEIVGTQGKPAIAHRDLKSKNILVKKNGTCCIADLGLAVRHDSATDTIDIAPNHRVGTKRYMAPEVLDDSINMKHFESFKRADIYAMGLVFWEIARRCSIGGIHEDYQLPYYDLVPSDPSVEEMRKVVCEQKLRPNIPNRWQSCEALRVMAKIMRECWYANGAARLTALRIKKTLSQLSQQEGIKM

[11] = target: Activin receptor type-1 (Homo sapiens) (UniProt Q04771); assay: Inhibition of wild-type human ACVR1 (C188 to C509 residues) expressed in bacterial expression system assessed as residual activity at 1 uM by Kinomescan method relative to control
Sequence of Activin receptor type-1 (Homo sapiens) (Q04771 whole entry, the tested form may be a part): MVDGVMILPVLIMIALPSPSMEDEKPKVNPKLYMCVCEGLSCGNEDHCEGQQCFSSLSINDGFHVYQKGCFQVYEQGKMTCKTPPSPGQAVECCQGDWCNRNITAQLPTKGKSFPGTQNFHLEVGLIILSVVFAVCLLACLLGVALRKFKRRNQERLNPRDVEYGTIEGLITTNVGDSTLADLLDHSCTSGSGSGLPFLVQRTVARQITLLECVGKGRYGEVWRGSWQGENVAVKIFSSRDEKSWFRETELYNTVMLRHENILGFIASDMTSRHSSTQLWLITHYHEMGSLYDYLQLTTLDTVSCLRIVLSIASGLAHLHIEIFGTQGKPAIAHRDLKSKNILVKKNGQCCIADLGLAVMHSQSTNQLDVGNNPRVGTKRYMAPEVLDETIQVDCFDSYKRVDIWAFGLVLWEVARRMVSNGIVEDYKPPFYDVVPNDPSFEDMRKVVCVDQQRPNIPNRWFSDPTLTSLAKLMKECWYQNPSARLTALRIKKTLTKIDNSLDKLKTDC

[12] = target: Ephrin type-A receptor 8 (Homo sapiens) (UniProt P29322); assay: Inhibition of wild-type human partial length EPHA8 (Q608 to C920 residues) expressed in bacterial expression system assessed as residual activity at 1 uM by Kinomescan method relative to control
[13] = target: Testis-specific serine/threonine-protein kinase 3 (Homo sapiens) (UniProt Q96PN8); assay: Inhibition of wild-type human full length TSSK3 (M1 to T268 residues) expressed in mammalian expression system assessed as residual activity at 1 uM by Kinomescan method relative to control
Sequence of Testis-specific serine/threonine-protein kinase 3 (Homo sapiens) (Q96PN8 whole entry, the tested form may be a part): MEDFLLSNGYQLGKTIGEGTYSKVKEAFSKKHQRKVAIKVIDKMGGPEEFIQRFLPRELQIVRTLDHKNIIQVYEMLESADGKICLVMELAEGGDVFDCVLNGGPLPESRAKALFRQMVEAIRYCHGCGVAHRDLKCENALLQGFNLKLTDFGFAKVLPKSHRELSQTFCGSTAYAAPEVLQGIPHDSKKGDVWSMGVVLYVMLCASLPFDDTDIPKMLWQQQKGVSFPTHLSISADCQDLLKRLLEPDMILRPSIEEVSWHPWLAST

[14] = target: AP2-associated protein kinase 1 (Homo sapiens) (UniProt Q2M2I8); assay: Inhibition of human wild-type AAK1 (G25 to L333 residues) expressed in bacterial expression system assessed as residual activity at 1 uM by Kinomescan method relative to control
[15] = target: SNF-related serine/threonine-protein kinase (Homo sapiens) (UniProt Q9NRH2); assay: Inhibition of wild-type human partial length SNRK (M1 to E339 residues) expressed in mammalian expression system assessed as residual activity at 1 uM by Kinomescan method relative to control
[16] = target: Mitogen-activated protein kinase 1 (Homo sapiens) (UniProt P28482); assay: Inhibition of wild-type human full length ERK2 (M1 to S360 residues) expressed in bacterial expression system assessed as residual activity at 1 uM by Kinomescan method relative to control
Sequence of Mitogen-activated protein kinase 1 (Homo sapiens) (P28482 whole entry, the tested form may be a part): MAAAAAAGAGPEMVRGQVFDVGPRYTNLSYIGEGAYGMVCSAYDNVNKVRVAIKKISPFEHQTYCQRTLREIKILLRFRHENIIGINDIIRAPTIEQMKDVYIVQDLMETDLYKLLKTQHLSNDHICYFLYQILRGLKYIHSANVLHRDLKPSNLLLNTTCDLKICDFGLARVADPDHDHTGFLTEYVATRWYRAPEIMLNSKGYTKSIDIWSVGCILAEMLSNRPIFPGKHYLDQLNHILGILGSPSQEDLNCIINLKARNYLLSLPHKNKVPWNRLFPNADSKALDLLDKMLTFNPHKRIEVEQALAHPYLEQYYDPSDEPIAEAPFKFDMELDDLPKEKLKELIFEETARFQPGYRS

[17] = target: Mitogen-activated protein kinase kinase kinase 11 (Homo sapiens) (UniProt Q16584); assay: Inhibition of wild-type human partial length MLK3 (I77 to W399 residues) expressed in bacterial expression system assessed as residual activity at 1 uM by Kinomescan method relative to control
[18] = target: Tyrosine-protein kinase HCK (Homo sapiens) (UniProt P08631); assay: Inhibition of wild-type human full length HCK (M22 to P526 residues) expressed in bacterial expression system assessed as residual activity at 1 uM by Kinomescan method relative to control
Sequence of Tyrosine-protein kinase HCK (Homo sapiens) (P08631 2-526 limits assumed): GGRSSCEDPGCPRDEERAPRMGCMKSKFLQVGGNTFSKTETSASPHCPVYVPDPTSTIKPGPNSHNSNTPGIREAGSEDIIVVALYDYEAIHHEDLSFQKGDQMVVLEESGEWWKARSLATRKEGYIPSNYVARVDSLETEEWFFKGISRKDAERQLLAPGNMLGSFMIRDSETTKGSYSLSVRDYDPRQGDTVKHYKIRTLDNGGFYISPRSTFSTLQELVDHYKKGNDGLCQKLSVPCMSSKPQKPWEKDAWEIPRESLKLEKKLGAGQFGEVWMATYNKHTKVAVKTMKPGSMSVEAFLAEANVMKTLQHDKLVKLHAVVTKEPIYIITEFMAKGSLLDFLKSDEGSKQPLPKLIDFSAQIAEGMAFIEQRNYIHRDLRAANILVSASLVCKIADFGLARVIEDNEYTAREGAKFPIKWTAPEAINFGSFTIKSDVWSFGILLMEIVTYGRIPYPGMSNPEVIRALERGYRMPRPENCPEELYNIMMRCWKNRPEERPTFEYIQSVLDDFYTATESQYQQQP

[19] = target: Insulin receptor-related protein (Homo sapiens) (UniProt P14616); assay: Inhibition of wild-type human partial length INSRR (R950 to E1278 residues) expressed in bacterial expression system assessed as residual activity at 1 uM by Kinomescan method relative to control
[20] = system: Phosphatidylinositol 4,5-bisphosphate 3-kinase catalytic subunit alpha isoform (Homo sapiens), P42336 [E542K]; assay: Inhibition of human partial length PIK3CA E542K mutant (R108 to N1068 residues) expressed in mammalian expression system assessed as residual activity at 1 uM by Kinomescan method relative to control
[21] = target: Serine/threonine-protein kinase NLK (Homo sapiens) (UniProt Q9UBE8); assay: Inhibition of wild-type human full length NLK (M13 to E527 residues) expressed in bacterial expression system assessed as residual activity at 1 uM by Kinomescan method relative to control
[22] = target: Serine/threonine-protein kinase 35 (Homo sapiens) (UniProt Q8TDR2); assay: Inhibition of wild-type human partial length STK35 (G182 to A534 residues) expressed in bacterial expression system assessed as residual activity at 1 uM by Kinomescan method relative to control
[23] = target: Ribosomal protein S6 kinase beta-1 (Homo sapiens) (UniProt P23443); assay: Inhibition of wild-type human partial length S6K1 (M1 to S421 residues) expressed in mammalian expression system assessed as residual activity at 1 uM by Kinomescan method relative to control
Sequence of Ribosomal protein S6 kinase beta-1 (Homo sapiens) (P23443 whole entry, looked up, the tested form may be a part): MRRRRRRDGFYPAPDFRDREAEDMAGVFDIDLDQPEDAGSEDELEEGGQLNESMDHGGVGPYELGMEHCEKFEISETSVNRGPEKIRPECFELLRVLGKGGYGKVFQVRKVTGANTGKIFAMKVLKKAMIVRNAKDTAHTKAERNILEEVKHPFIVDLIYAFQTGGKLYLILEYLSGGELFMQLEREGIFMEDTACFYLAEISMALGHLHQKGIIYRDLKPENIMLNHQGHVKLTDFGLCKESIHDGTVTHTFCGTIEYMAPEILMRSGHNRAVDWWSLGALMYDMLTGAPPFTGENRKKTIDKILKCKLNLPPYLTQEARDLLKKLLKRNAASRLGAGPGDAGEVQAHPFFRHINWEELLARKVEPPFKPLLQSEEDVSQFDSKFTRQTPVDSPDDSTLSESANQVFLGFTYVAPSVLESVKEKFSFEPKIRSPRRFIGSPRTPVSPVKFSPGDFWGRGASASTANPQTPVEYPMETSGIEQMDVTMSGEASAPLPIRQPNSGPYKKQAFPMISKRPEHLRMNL

[24] = system: Proto-oncogene tyrosine-protein kinase receptor Ret (Homo sapiens), P07949 [V804M]; assay: Inhibition of human partial length RET V804M mutant (E713 to D1014 residues) expressed in bacterial expression system assessed as residual activity at 1 uM by Kinomescan method relative to control
Sequence of Proto-oncogene tyrosine-protein kinase receptor Ret (Homo sapiens), P07949 [V804M] (P07949 whole entry V804M, the tested form may be a part): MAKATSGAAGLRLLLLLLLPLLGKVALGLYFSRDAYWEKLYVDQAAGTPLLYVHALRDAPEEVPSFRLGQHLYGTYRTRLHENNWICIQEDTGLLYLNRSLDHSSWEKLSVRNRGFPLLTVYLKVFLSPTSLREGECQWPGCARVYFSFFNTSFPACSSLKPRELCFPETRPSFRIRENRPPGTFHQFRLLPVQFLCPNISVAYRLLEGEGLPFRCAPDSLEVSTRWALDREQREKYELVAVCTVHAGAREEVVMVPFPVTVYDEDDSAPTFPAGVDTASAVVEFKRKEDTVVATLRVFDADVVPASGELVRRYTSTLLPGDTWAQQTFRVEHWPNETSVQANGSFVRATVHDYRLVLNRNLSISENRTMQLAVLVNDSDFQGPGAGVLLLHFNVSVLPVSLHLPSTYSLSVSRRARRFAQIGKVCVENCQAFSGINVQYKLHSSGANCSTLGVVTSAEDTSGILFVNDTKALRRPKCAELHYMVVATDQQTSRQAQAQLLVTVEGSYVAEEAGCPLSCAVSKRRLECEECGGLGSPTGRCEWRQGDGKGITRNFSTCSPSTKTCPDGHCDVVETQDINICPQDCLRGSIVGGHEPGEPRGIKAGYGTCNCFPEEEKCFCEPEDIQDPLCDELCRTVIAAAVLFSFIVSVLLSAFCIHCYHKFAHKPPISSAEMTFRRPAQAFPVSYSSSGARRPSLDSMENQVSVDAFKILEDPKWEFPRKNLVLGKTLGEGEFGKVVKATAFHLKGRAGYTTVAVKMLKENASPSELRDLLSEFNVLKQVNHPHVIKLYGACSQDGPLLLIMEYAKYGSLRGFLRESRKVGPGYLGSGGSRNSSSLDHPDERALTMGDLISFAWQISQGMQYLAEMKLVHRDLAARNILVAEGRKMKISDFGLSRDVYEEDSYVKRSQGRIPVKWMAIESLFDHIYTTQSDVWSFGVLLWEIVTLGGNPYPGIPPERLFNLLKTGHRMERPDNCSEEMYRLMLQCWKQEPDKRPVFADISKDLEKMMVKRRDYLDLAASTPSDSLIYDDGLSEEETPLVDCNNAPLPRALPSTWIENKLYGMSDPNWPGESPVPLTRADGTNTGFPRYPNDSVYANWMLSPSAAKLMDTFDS

[25] = system: Tyrosine-protein kinase ABL1 (Homo sapiens), P00519 [T315I]; assay: Inhibition of human non-phosphorylated ABL1 T315I mutant (S229 to K512 residues) expressed in mammalian expression system assessed as residual activity at 1 uM by Kinomescan method relative to control
[26] = system: Epidermal growth factor receptor (Homo sapiens), P00533 [UNDEFINED MUTATION]; assay: Inhibition of human partial length EGFR E746-A750del mutant expressed in bacterial expression system assessed as residual activity at 1 uM by Kinomescan method relative to control

## C=CC(=O)Nc1cc(Nc2cc(-c3cccc(NC(=O)c4ccc(C(C)(C)C)cc4)c3C)cn(C)c2=O)ccc1C(=O)N1CCOCC1
[1]
  Activity: 100%
[2]
  Activity: 96%
[3]
  Activity: 94%
[4]
  Activity: 87%
[5]
  Activity: 99%
[6]
  Activity: 91%
[7]
  GI50: 3.8 µM
[8]
  Activity: 100%
[9]
  Activity: 100%
[10]
  Activity: 93%
[11]
  Activity: 97%
[12]
  Activity: 97%
[13]
  Activity: 100%
[14]
  Activity: 96%
[15]
  Activity: 80%
[16]
  Activity: 91%
[17]
  Activity: 100%
[18]
  Activity: 100%
[19]
  Activity: 100%
[20]
  Activity: 94%
[21]
  Activity: 63%
[22]
  Activity: 94%
[23]
  Activity: 100%
[24]
  Activity: 96%
[25]
  Activity: 99%
[26]
  Activity: 80%
